From US20250368649A1, “TETRAHYDROPYRIDOPYRIMIDINE PAN-KRAS INHIBITORS” (Mirati Therapeutics, Inc., priority 2022, published 2025)

Tests used:
[1] = target: KRas G12A (Homo sapiens, UniProt P01116, G12A); assay type: binding; settings: single point, 10 nM compound, read-out: Binding to KRas (% inhibition at 10 nM) G12A
[2] = tested on: H358 cells; experiment: Inhibition of KRas-mediated phosphorylation of ERK (Cisbio HTRF pERK), H358 cells; assay type: cell-based; settings: Homo sapiens; for IC50: NCI-H358, 3 h, 3 hr compound incubation, Cisbio pERK HTRF; for inhibition at 0.1 µM: NCI-H358, single point at 100 nM, 3 hrs compound incubation
[3] = tested on: H460 cells; experiment: Inhibition of KRas-mediated phosphorylation of ERK (Cisbio HTRF pERK), H460 cells; assay type: cell-based; settings: Homo sapiens; for IC50: NCI-H460, 3 h, 3 hr compound incubation, Cisbio pERK HTRF; for inhibition at 0.1 µM: NCI-H460, single point at 100 nM, 3 hrs compound incubation
[4] = target: KRas G12S (Homo sapiens, UniProt P01116, G12S); assay type: binding; settings: single point, 10 nM compound, read-out: Binding to KRas (% inhibition at 10 nM) G12S
Chain of KRas G12S (P01116 1-169 isoform P01116-2 G12S): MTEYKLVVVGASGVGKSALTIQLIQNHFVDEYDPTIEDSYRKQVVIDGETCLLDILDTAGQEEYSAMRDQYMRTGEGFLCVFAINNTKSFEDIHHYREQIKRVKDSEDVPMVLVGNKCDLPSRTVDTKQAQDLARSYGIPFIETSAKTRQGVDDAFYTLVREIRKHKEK

[5] = target: KRas Q61H (Homo sapiens, UniProt P01116, Q61H); experiment: KRas binding assay (TR-FRET displacement), KRas Q61H; settings: single point, 10 nM compound
Chain of KRas Q61H (P01116 1-169 isoform P01116-2 Q61H): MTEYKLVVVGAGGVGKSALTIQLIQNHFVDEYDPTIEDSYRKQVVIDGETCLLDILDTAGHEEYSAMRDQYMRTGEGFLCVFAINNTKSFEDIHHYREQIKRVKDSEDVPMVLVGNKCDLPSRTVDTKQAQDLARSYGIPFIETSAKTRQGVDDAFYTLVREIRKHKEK

[6] = target: KRas G13D (Homo sapiens, UniProt P01116, G13D); assay type: binding; settings: single point, 10 nM compound, read-out: Binding to KRas (% inhibition at 10 nM) G13D
Chain of KRas G13D (P01116 1-169 isoform P01116-2 G13D): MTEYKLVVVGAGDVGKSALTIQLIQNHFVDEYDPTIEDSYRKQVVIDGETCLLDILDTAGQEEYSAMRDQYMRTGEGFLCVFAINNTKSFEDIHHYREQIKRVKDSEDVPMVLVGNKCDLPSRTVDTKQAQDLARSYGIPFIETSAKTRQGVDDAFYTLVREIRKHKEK

[7] = target: KRas G12R (Homo sapiens, UniProt P01116, G12R); experiment: biochemical; settings: Binding to KRas (IC50 nM) G12R, TR-FRET displacement, KRas G12R
Chain of KRas G12R (P01116 1-169 isoform P01116-2 G12R): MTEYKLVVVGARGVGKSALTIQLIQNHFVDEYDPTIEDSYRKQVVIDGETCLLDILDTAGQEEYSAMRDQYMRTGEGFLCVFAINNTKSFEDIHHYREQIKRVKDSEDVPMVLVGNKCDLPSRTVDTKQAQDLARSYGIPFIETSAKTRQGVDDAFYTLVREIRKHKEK

[8] = target: KRas G12C (Homo sapiens, UniProt P01116, G12C); assay type: binding; settings: single point, 10 nM compound, read-out: Binding to KRas (% inhibition at 10 nM) G12C
Chain of KRas G12C (P01116 1-169 isoform P01116-2 G12C): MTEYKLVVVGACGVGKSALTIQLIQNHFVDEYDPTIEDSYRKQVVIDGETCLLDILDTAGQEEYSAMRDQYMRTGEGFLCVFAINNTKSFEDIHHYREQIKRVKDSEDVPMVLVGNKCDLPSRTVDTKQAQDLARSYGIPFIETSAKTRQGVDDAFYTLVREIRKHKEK

[9] = tested on: HCT116 cells; experiment: Inhibition of KRas-mediated phosphorylation of ERK (Cisbio HTRF pERK), HCT116 cells; assay type: cell-based; settings: Homo sapiens; for IC50: HCT-116, 3 h, 3 hr compound incubation, Cisbio pERK HTRF; for inhibition at 0.1 µM: HCT-116, single point at 100 nM, 3 hrs compound incubation
[10] = target: KRas G12D (Homo sapiens, UniProt P01116, G12D); experiment: biochemical; settings: Binding to KRas (IC50 nM) G12D, TR-FRET displacement, KRas G12D
Chain of KRas G12D (P01116 1-169 isoform P01116-2 G12D): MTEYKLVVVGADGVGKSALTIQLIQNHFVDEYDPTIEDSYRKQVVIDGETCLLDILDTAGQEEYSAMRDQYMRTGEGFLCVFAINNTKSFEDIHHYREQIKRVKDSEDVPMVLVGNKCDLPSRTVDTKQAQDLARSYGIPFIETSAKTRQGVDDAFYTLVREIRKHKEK

[11] = target: KRas G12V (Homo sapiens, UniProt P01116, G12V); experiment: biochemical; settings: Binding to KRas (IC50 nM) G12V, TR-FRET displacement, KRas G12V
Chain of KRas G12V (P01116 1-169 isoform P01116-2 G12V): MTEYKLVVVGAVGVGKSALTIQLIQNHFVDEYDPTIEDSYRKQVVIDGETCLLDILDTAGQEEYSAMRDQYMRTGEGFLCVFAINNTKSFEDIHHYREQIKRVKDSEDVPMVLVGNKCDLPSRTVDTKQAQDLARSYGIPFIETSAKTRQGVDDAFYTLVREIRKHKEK

[12] = target: KRas WT (Homo sapiens, UniProt P01116); experiment: KRas binding assay (TR-FRET displacement), KRas WT; settings: single point, 10 nM compound
Chain of KRas WT (P01116 1-169 isoform P01116-2): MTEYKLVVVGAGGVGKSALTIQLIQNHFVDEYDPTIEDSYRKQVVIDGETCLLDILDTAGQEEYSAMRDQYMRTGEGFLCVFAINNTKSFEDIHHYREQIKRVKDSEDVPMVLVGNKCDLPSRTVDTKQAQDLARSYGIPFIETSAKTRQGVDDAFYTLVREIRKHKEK

[13] = tested on: A549 cells; experiment: Inhibition of KRas-mediated phosphorylation of ERK (Cisbio HTRF pERK), A549 cells; assay type: cell-based; settings: Homo sapiens; for IC50: A549, 3 h, 3 hr compound incubation, Cisbio pERK HTRF; for inhibition at 0.1 µM: single point at 100 nM, 3 hrs compound incubation
[14] = tested on: ASPC1 cells; experiment: Inhibition of KRas-mediated phosphorylation of ERK (Cisbio HTRF pERK), ASPC1 cells; assay type: cell-based; settings: Homo sapiens, AsPC-1 cells; for IC50: ASPC1, 3 h, 3 hr compound incubation, Cisbio pERK HTRF; for inhibition at 0.1 µM: ASPC1, single point at 100 nM, 3 hrs compound incubation
[15] = tested on: PSN1 cells; experiment: Inhibition of KRas-mediated phosphorylation of ERK (Cisbio HTRF pERK), PSN1 cells; assay type: cell-based; settings: Homo sapiens, PSN1, 3 h, 3 hour compound incubation, Cisbio pERK HTRF
Summary of the method: (§1)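 Growth medium is RPMI with 10% FBS, and each well receives 6,000 cells on the first day of the protocol.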

[16] = tested on: H727 cells; experiment: Inhibition of KRas-mediated phosphorylation of ERK (Cisbio HTRF pERK), H727 cells; assay type: cell-based; settings: Homo sapiens; for IC50: NCI-H727, 3 h, 3 hr compound incubation, Cisbio pERK HTRF; for inhibition at 0.1 µM: NCI-H727, single point at 100 nM, 3 hrs compound incubation
[17] = tested on: MKN1 cells; experiment: Inhibition of KRas-mediated phosphorylation of ERK (Cisbio HTRF pERK), MKN1 cells; assay type: cell-based; settings: Homo sapiens, MKN-1, 3 hour compound incubation, Cisbio pERK HTRF
Summary of the method: as §1

Chain of KRas G12A (P01116 1-169 isoform P01116-2 G12A): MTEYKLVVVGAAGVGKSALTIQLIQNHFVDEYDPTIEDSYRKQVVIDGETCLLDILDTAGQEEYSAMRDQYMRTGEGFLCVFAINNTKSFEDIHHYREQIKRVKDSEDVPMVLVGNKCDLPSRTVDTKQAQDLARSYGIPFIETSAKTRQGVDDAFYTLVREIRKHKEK

| inhibition at 0.01 µM [1] | IC50 [2] | IC50 [3] | inhibition at 0.01 µM [4] | inhibition at 0.01 µM [5] | inhibition at 0.01 µM [6] | IC50 [7] | inhibition at 0.01 µM [8] | IC50 [9] | IC50 [10] | IC50 [11] | inhibition at 0.01 µM [12] | IC50 [13] | IC50 [14] | IC50 [15] | IC50 [16] | IC50 [17] | SMILES | inhibition at 0.1 µM [2] | inhibition at 0.1 µM [13] | inhibition at 0.1 µM [14] | further results |
| --- | --- | --- | --- | --- | --- | --- | --- | --- | --- | --- | --- | --- | --- | --- | --- | --- | --- | --- | --- | --- | --- |
| 96% | 3 nM | 30 nM | 99% | 95% | 94% | < 2 nM | 99% | 95 nM | < 2 nM | < 2 nM | 93% | 2 nM | 2 nM | 4720 nM | 5 nM | 10.8 nM | CCc1c(F)ccc2cc(O)cc(N3CCc4c(nc(OC[C@@]56CCCN5C[C@H](F)C6)nc4N4CCCn5nc(C(=O)NC)c(C)c5C4)C3)c12 [Example 380, 5-(7-(8-ethyl-7-fluoro-3-hydroxynaphthalen-1-yl)-2-(((2R,7aS)-2-fluorohexahydro-1H-pyrrolizin-7a-yl)methoxy)-5,6,7,8-tetrahydropyrido[3,4-d]pyrimidin-4-yl)-N,3-dimethyl-5,6,7,8-tetrahydro-4H-pyrazolo[1,5-a][1,4]diazepine-2-carboxamide] | 93% | 81% | 94% | inhibition at 0.1 µM [16]: 69% |
| 96% | 5 nM | 35 nM | 99% | 96% | 94% | < 2 nM | 99% | 105 nM | < 2 nM | < 2 nM | 95% | 25 nM | 4 nM | 4820 nM | 6 nM | 13.5 nM | CCc1c(F)ccc2cc(O)cc(N3CCc4c(nc(OC[C@@]56CCCN5C[C@H](F)C6)nc4N4CCCn5nc(C(=O)NCCOCCOC)cc5C4)C3)c12 [Example 374, 5-(7-(8-ethyl-7-fluoro-3-hydroxynaphthalen-1-yl)-2-(((2R,7aS)-2-fluorohexahydro-1H-pyrrolizin-7a-yl)methoxy)-5,6,7,8-tetrahydropyrido[3,4-d]pyrimidin-4-yl)-N-(2-(2-methoxyethoxy)ethyl)-5,6,7,8-tetrahydro-4H-pyrazolo[1,5-a][1,4]diazepine-2-carboxamide] | 99% | 57% | – | – |
| 94% | 5 nM | 38 nM | 98% | 93% | 93% | < 2 nM | 98% | 118 nM | < 2 nM | < 2 nM | 93% | 12 nM | 4 nM | 6580 nM | 20 nM | 8.9 nM | CCc1c(F)ccc2cc(O)cc(N3CCc4c(nc(OC[C@@]56CCCN5C[C@H](F)C6)nc4N4CCCn5nc(N)c(Br)c5C4)C3)c12 [Example 296, 4-(4-(2-amino-3-bromo-7,8-dihydro-4H-pyrazolo[1,5-a][1,4]diazepin-5(6H)-yl)-2-(((2R,7aS)-2-fluorohexahydro-1H-pyrrolizin-7a-yl)methoxy)-5,6-dihydropyrido[3,4-d]pyrimidin-7(8H)-yl)-5-ethyl-6-fluoronaphthalen-2-ol] | 98% | 86% | 94% | inhibition at 0.1 µM [3]: 78%; inhibition at 0.1 µM [9]: 51%; inhibition at 0.1 µM [16]: 67% |
| 98% | 2 nM | 15 nM | 100% | 98% | 98% | < 2 nM | 100% | 41 nM | < 2 nM | < 2 nM | 98% | 7 nM | 4 nM | 3800 nM | 10 nM | 4 nM | CCc1c(F)ccc2cc(O)cc(N3CCc4c(nc(OC[C@@]56CCCN5C[C@H](F)C6)nc4N4CCCn5nc(C(=O)N(C)C)c(C6CC6)c5C4)C3)c12 [Example 294, 3-cyclopropyl-5-(7-(8-ethyl-7-fluoro-3-hydroxynaphthalen-1-yl)-2-(((2R,7aS)-2-fluorohexahydro-1H-pyrrolizin-7a-yl)methoxy)-5,6,7,8-tetrahydropyrido[3,4-d]pyrimidin-4-yl)-N,N-dimethyl-5,6,7,8-tetrahydro-4H-pyrazolo[1,5-a][1,4]diazepine-2-carboxamide] | 100% | 82% | – | inhibition at 0.1 µM [3]: 90%; inhibition at 0.1 µM [9]: 72% |

| SMILES | inhibition at 0.01 µM [1] | IC50 [2] | IC50 [3] | inhibition at 0.01 µM [4] | inhibition at 0.01 µM [5] | inhibition at 0.01 µM [6] | IC50 [7] | inhibition at 0.01 µM [8] | IC50 [9] | IC50 [10] | IC50 [11] | inhibition at 0.01 µM [12] | IC50 [13] | IC50 [14] | IC50 [15] | IC50 [16] | IC50 [17] | inhibition at 0.1 µM [2] | inhibition at 0.1 µM [13] | inhibition at 0.1 µM [14] | further results |
| --- | --- | --- | --- | --- | --- | --- | --- | --- | --- | --- | --- | --- | --- | --- | --- | --- | --- | --- | --- | --- | --- |
| CCc1c(F)ccc2cc(O)cc(N3CCc4c(nc(OC[C@@]56CCCN5C[C@H](F)C6)nc4N4CCCn5nc(C(=O)N6CC7CC(C6)N7C)cc5C4)C3)c12 [Example 262] | 95% | – | – | 98% | 96% | 97% | < 2 nM | 99% | – | < 2 nM | < 2 nM | 95% | – | 14 nM | > 10000 nM | 78 nM | 56 nM | 91% | 47% | 94% | inhibition at 0.1 µM [3]: 21%; inhibition at 0.1 µM [9]: 16%; inhibition at 0.1 µM [16]: 38% |
| CCc1c(F)ccc2cc(O)cc(N3CCc4c(nc(OC[C@@]56CCCN5C[C@H](F)C6)nc4N4CCCn5nc(C(=O)N6CC7CCC(C6)N7)cc5C4)C3)c12 [Example 265, 3,8-diazabicyclo[3.2.1]octan-3-yl(5-(7-(8-ethyl-7-fluoro-3-hydroxynaphthalen-1-yl)-2-(((2R,7aS)-2-fluorohexahydro-1H-pyrrolizin-7a-yl)methoxy)-5,6,7,8-tetrahydropyrido[3,4-d]pyrimidin-4-yl)-5,6,7,8-tetrahydro-4H-pyrazolo[1,5-a][1,4]diazepin-2-yl)methanone] | 97% | – | – | 99% | 97% | 99% | < 2 nM | 100% | – | < 2 nM | < 2 nM | 98% | – | 31 nM | > 10000 nM | 217 nM | 23.1 nM | 60% | 32% | 63% | inhibition at 0.1 µM [3]: -4%; inhibition at 0.1 µM [9]: 16%; inhibition at 0.1 µM [16]: 40% |
